Source: PMC6920857, “Novel Series of Methyl 3-(Substituted Benzoyl)-7-Substituted-2-Phenylindolizine-1-Carboxylates as Promising Anti-Inflammatory Agents: Molecular Modeling Studies” (Biomolecules, 2019)

How the values were obtained:
[1] = target: T1, human recombinant COX-2 enzyme (Homo sapiens, UniProt P35354); test: In vitro COX-2 inhibition assay
T1 sequence (P35354 18-604): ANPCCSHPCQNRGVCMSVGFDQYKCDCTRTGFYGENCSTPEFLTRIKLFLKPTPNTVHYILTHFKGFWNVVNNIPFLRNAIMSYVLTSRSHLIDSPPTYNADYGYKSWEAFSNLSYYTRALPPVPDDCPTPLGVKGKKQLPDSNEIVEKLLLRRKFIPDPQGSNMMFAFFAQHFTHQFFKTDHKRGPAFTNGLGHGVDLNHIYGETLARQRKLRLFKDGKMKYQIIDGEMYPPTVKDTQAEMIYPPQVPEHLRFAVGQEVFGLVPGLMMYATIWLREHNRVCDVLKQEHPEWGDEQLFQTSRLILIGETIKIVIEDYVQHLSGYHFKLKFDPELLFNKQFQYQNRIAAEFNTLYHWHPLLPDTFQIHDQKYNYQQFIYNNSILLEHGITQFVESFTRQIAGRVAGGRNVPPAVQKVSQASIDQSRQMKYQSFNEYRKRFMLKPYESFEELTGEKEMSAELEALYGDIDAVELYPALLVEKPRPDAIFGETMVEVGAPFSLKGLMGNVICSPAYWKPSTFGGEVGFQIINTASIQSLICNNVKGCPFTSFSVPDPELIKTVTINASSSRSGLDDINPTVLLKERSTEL

Q: For `COC(=O)c1c(-c2ccccc2)c(C(=O)c2ccc(Cl)cc2)n2ccc(C)cc12` [Compound 4c, Methyl 3-(4-Chlorobenzoyl)-7-Methyl-2-Phenylindolizine-1-Carboxylate], which IC50 [1] is on record?
A: 38.11 ± 0.03 µM

Q: What about the melting point of the same molecule?
A: 154 to 155 °C

Q: With `COC(=O)c1c(-c2ccccc2)c(C(=O)c2ccc(OC)cc2)n2ccc(C#N)cc12` [Compound 4g, Methyl 7-Cyano-3-(4-Methoxybenzoyl)-2-Phenylindolizine-1-Carboxylate] as the molecule, how does the IC50 [1] read?
A: 9.62 ± 0.03 µM

Q: And the melting point?
A: 166 to 167 °C

Q: Which results are given for `COC(=O)c1c(-c2ccccc2)c(C(=O)c2ccc(C#N)cc2)n2ccc(C#N)cc12` [Compound 4e, Methyl 7-Cyano-3-(4-Cyanobenzoyl)-2-Phenylindolizine-1-Carboxylate]?
A: IC50 [1]: 6.71 ± 0.03 µM; melting point: 235 to 236 °C

Q: What does the source list for `COC(=O)c1c(-c2ccccc2)c(C(=O)c2ccc(Br)cc2)n2ccc(C#N)cc12` [Compound 4f, Methyl 3-(4-Bromobenzoyl)-7-Cyano-2-Phenylindolizine-1-Carboxylate]?
A: IC50 [1]: 13.55 ± 0.03 µM; melting point: 208 to 209 °C

Q: For `COC(=O)c1c(-c2ccccc2)c(C(=O)c2ccc(F)cc2)n2ccc(C)cc12` [Compound 4b, Methyl 3-(4-Fluorobenzoyl)-7-Methyl-2-Phenylindolizine-1-Carboxylate], which IC50 [1] is on record?
A: 27.08 ± 0.03 µM

Q: And the melting point?
A: 167 to 168 °C

Q: Which results are given for `COC(=O)c1c(-c2ccccc2)c(C(=O)c2ccccc2)n2ccc(C)cc12` [Compound 4a, Methyl 3-Benzoyl-7-Methyl-2-Phenylindolizine-1-Carboxylate]?
A: IC50 [1]: 41.59 ± 0.03 µM; melting point: 173 to 174 °C

Q: Which results are given for `COC(=O)c1c(-c2ccccc2)c(C(=O)c2ccc(Br)cc2)n2ccc(C)cc12` [Compound 4d, Methyl 3-(4-Bromobenzoyl)-7-Methyl-2-Phenylindolizine-1-Carboxylate]?
A: IC50 [1]: 37.66 ± 0.03 µM; melting point: 137 to 138 °C
